According to US9873657B2, “Derivatives of benzyl benzoate” (ROBERTET S.A., priority 2014, dated 2018):

System: Corynaebacterium xerosis
Assay: In vitro deodorant activity and durability test (CFU counting in culture vials)
Assay type: cell-based
Settings: for Number of CFU/ml at t + 24 h / Number of CFU/ml at t + 48 h: 37° C.
Experimental: The test is carried out in vitro.
The compound 1 and the benzyl-4-benzoyloxybenzoate (reference compound described in the international patent application WO 91/07165) are both 10% diluted in benzylbenzoate, and incorporated in a specific culture medium at the moment of distribution in 50 ml vials.
The composition of the vials is characterized as follows: • Vial No. 1 • Brain Heart Infusion (medium)+0.5% Tween 40 • Compound 1 or benzyl-4-benzoyloxybenzoate—0.25% • Enzyme (Lipozyme® CALB, Novozymes)—2% • Bacteria (Corynaebacterium xerosis)—about 10^6 CFU/ml • Vial No. 2 • Brain Heart Infusion (medium)+0.5% Tween 40 • Compound 1 or benzyl-4-benzoyloxybenzoate—0.25% • Bacteria (Corynaebacterium xerosis)—about 10^6 CFU/ml • Vial No. 3 • Brain Heart Infusion (medium)+0.5% Tween 40 • Compound 1 or benzyl-4-benzoyloxybenzoate—0.25% • Enzyme (Lipozyme® CALB, Novozymes)—2%
Afterwards, the vials are incubated under stirring at 37° C. for 48 hours.
After 24 hours, a collection is performed, and 100 μl of a dilution to 1/1000th are spread out on gelose. Counting of the number of CFU (Colony Forming Units) is performed.
It is the comparison of the ratios between the amount of CFU/ml at a time t for the product+enzyme and the product alone which allows assessing the inhibiting activity of the product.

[1] = Vial 1: product 0.25% + enzyme (Lipozyme CALB) 2% + bacteria, Brain Heart Infusion + 0.5% Tween 40
[2] = Vial 2: product 0.25% + bacteria, no enzyme, Brain Heart Infusion + 0.5% Tween 40
[3] = Vial 3: product 0.25% + enzyme 2%, no bacteria added

Structure (SMILES)	Number of CFU/ml at t + 24 h [1]	Number of CFU/ml at t + 48 h [1]	Number of CFU/ml at t + 24 h [2]	Number of CFU/ml at t + 48 h [2]	Number of CFU/ml at t + 24 h [3]	Number of CFU/ml at t + 48 h [3]	deodorant activity compared with benzyl-4-benzoyloxybenzoate (after 24 hours)	deodorant activity relative to the benzyl-4-benzoyloxybenzoate (after 48 hours)
O=C(OCc1ccccc1)c1ccc(OC(=O)c2ccc(Oc3ccccc3)cc2)cc1 [Compound 1, Benzyl[4-(4-Phenoxy)Benzoyloxy]Benzoate]	10^7 CFU/ml	36000 ^ CFU/ml	10^8 CFU/ml	3.2 × 10^6 CFU/ml	0 CFU/ml	0 CFU/ml	comparable	significantly higher
O=C(OCc1ccccc1)c1ccc(OC(=O)c2ccccc2)cc1 [benzyl-4-benzoyloxybenzoate, reference compound]	2.7 × 10^6 CFU/ml	10^8 CFU/ml	10^8 CFU/ml	10^9 CFU/ml	0 CFU/ml	0 CFU/ml		
